According to US20030224021A1, “Methods of using epitope peptides of human pathogens” (Regents of the University of Minnesota, priority 1998, published 2003):
Where no end group is shown, it is not given here.

Assays:
[1] = tested on: PBMC; assay: PBMC of 49 HLA heterogenous subjects challenged with DTX and TTX universal epitope peptides; assay type: cell-based, human; conditions: share of the 49 subjects whose PBMC responded
Text: PBMC of 49 randomly selected, HLA heterogenous human subjects were challenged with each of the identified DTX and TTX universal epitope peptides. Generally, the PBMCs of each subject recognized several universal epitopes and all but one recognized at least one of the peptides.

[2] = tested on: anti-DTD CD4+ cell lines; assay: Proliferation assay (3H-thymidine) with anti-DTD CD4+ cell lines challenged with individual synthetic DTX peptides; assay type: cell-based, human; conditions: seven subjects of different HLA class II haplotype; peptide 10 μg/ml
Procedure: Propagation of CD4+ cell lines specific for DTD and proliferation assay. PBMC were suspended (1-2×10^6 cell/ml) in TCM containing 10 μg/ml DTD, and cultivated in T25 flasks (Costar, Cambridge, Mass.) for 1 week. The reactive lymphoblasts were isolated on Percoll gradients, expanded in TCM containing T-cell growth factor (TCGF, Lymphocult, Biotest Diagnostic, Dreieich, Germany, at a final concentration of IL-2 of 10 units/ml), and enriched in DTD-specific cells by weekly stimulations with the same amount of DTD plus irradiated (4,000 rads: 1 rad=0.01 Gy) autologous PBMC as APC. The response to DTD and PHA of the T cell lines obtained was tested weekly.
Proliferation assays with CD4+ cell lines for DTD. Proliferation assays were carried out with CD4+ lines, using 2×10^4 cells/well, irradiated autologous PBMC (2×10^5 cells/well) as APC, and the Ags described above for CD4+ enriched PBMC. Basal growth rate (Blank) was determined from triplicate wells containing CD4+ cell lines cultivated without any stimulus. After one day, the cultured cells were pulsed for 16 hours with ^3H-thymidine, collected, and the ^3H-thymidine incorporation measured as described above for CD4+ enriched PBMC.
Sequence segments of DTX recognized by anti-DTD T cell lines. The DTX epitopes recognized by the CD4+ cell lines were identified in proliferation assays using individual synthetic DTX-specific peptides. […] The consistency of the recognition was verified by repeating the test 1-2 weeks later.

Substance | positive response (1%) [1] [%] | recognition by anti-DTD CD4+ cell lines [2]
Gln-Ser-Ile-Ala-Leu-Ser-Ser-Leu-Met-Val-Ala-Gln-Ala-Ile-Pro-leu-Val-Gly-Glu-Leu [331-350] | 80 | recognized by all seven individuals
PVFAGANYAAWAVNVAQVI [271-290] | 84 | recognized by all seven individuals
VHHNTEEIVAQSIALSSLMV [321-340] | 76 | recognized by all seven individuals
GVLLPTIPGKLDVNKSKTHI [431-450] | 70 | recognized by all seven individuals
VDIGFAAYNFVESIINLFQVV [351-370] | 71 | recognized by all seven individuals
QGESGHDIKITAENTPLPIA [411-430] | 70 | recognized by all seven individuals
TDD: column head of Table 4 beside the TTD sequence segments; presumably tetanus toxoid | 96 | 
